From US20260174778A1, “SULFONAMIDE COMPOUND, AND PREPARATION METHOD THEREFOR AND USE THEREOF” (SHANGHAI HENLIUS BIOTECH, INC., priority 2023, published 2026)

test system: breast cancer cell line ZR-75-1; experiment: Inhibition of proliferation of breast cancer cell line ZR-75-1 (CellTiter-Glo); format: cell-based; details: Homo sapiens, 240 h, proliferation of ZR-75-1 cells, 10 days of incubation, read-out: IC50 (KAT6A)
Text: Test Example 1: Experiment for Determining Inhibitory Effects of Compounds on Proliferation of Breast Cancer Cell Line ZR-75-1
ATP is an indicator of the metabolism of living cells. The CellTiter-Glo® Luminescent Cell Viability Assay is a homogeneous assay method for determining the number of viable cells by quantifying ATP.
• 1) ZR-75-1 (Cell Bank of Chinese Academy of Sciences, TCHul26) • 2) RPMI-1640 medium (Gibco, 11875-093) • 3) Fetal Bovine Serum, New Zealand (Gibco,10091-148) • 4) Penicillin-streptomycin (10,000 U/mL) (Gibco, 15140-122) • 5) Trypsin-EDTA (0.25%), containing phenol red (Gibco, 25200-072) • 6) DPBS (Shanghai BasalMedia, B210KJ) • 7) Corning® 96-well Clear Flat Bottom Ultra-Low Attachment Microplate (Corning, Cat. No. 3474) • 8) 330 μL 96 Holes Deep Well Plate, transparents, 96 Round Holes, V-shaped Bottom, Low Retention (Stellar Scientific, DP33VR-9-NS) • 9) Corning® 96-well solid white flat-bottom polystyrene microplate (Corning, Cat. No. 3917) • 10) CellTiter-Glo® Luminescent Cell Viability Assay (Promega, G7573) • 11) Countstar® BioMed automatic cell counter • 12) Trypan blue solution, 0.4% (Gibco, Cat. No. 15250061) • 13) 37° C. constant-temperature incubator (Thermo, FORMA STERI-CYCLE i160 LK) • 14) Biosafety cabinet (Thermo, 1379)
• 1) The formula of the complete medium for ZR-75-1 was as follows: 500 mL RPMI-1640+10% FBS+1% penicillin-streptomycin. • 2) Thirty minutes before cell plating, the complete medium, serum, trypsin, and DPBS for use in ZR-75-1 cell culture were pre-warmed in a water bath at 37° C. • 3) The ZR-75-1 cells were taken out of the incubator, and the medium was removed by pipetting. The cells were rinsed once with 5 mL of DPBS, and then the DPBS was discarded. • 4) The cells in the T75 culture flask were digested with 1-3 mL of (0.25%) trypsin-EDTA. After the trypsin was added, the culture flask was incubated in an incubator at 37° C. for 2-5 min, and dispersion was confirmed by microscopic examination. Tapping or agitating the culture flask was avoided to prevent disturbing the cells, which might cause cell clumping. • 5) 9 mL of the complete medium was added to terminate the digestion, thus forming a cell suspension, which was then mixed well by pipetting. • 6) Cell suspension counting: 20 μL of the cell suspension was pipetted and diluted with 20 µL of the 0.4% trypan blue solution (Gibco, Cat. No. 15250061). The total cell count and the percentage of cell viability were determined using the Countstar® BioMed automatic cell counter. Only cells with a cell viability of no less than 95% were used for the experiment. • 7) The concentration of the cell suspension was adjusted to 2000 cells/well, and the cell suspension was added to a 96-well cell culture plate at 80 μL/well. Treatment of Cells with Compounds • 1) Twenty-four hours after cell plating, the cell plate was taken out. • 2) Each compound was prepared with a complete medium. The stock solution was a 10 mM solution in DMSO, which was first diluted with the medium to 100 μM, then diluted to 1 μM, and finally subjected to a 5-fold serial dilution across a total of 9 concentration gradients. • 3) 20 μL of the compound diluted with the medium was added to each well of the cell culture plate, which already contained 80 μL of the medium. The final concentration started at 200 nM, followed by a 5-fold serial dilution across a total of 9 concentration gradients. Two replicate wells were set for each compound, and each plate could be used to test 3 compounds, with the DMSO content controlled within 0.5%. • 4) The culture medium was replenished once every three days with a complete medium containing the same concentration of the test compound, with 20 μL/well added each time.
After 10 days of incubation with the compound, the cell culture plate was taken out, and the CellTiter-Glo® reagent was added at 50 μL/well. […]

| IC50 | Compound |
| --- | --- |
| 10 to 50 nM | COc1cc(Cn2cccn2)cc2onc(NS(=O)(=O)c3cccc4c3OCO4)c12 [Compound 4, N-(6-((1H-Pyrazol-1-yl)methyl)-4-methoxybenzo[d]isoxazol-3-yl)benzo[d][1,3]dioxole-4-sulfonamide] |
| ≥ 50 nM | COc1cc(Cn2cccn2)cc2onc(NS(=O)(=O)c3cccc4c3OC(F)(F)O4)c12 [Compound 5, N-(6-((1H-Pyrazol-1-yl)methyl)-4-methoxybenzo[d]isoxazol-3-yl)-2,2-difluorobenzo[d][1,3]dioxole-4-sulfonamide] |
| ≥ 50 nM | COc1ccccc1S(=O)(=O)Nc1nsc2cc(Cn3cccn3)cc(OC)c12 [Compound 9, N-(6-((1H-Pyrazol-1-yl)methyl)-4-methoxybenzo[d]isothiazol-3-yl)-2-methoxybenzenesulfonamide] |
| 2 to 10 nM | COc1cc(Cn2cccn2)cc2onc(NS(=O)(=O)c3cc(C(C)C)ccc3OCC(F)F)c12 [Compound 10, N-(6-((1H-Pyrazol-1-yl)methyl)-4-methoxybenzo[d]isoxazol-3-yl)-2-(2,2-difluoroethoxy)-5-isopropylbenzenesulfonamide] |
| 2 to 10 nM | COc1ccccc1S(=O)(=O)Nc1noc2cc(Cn3cccn3)cc(OC(F)F)c12 [Compound 11, N-(6-((1H-Pyrazol-1-yl)methyl)-4-(difluoromethoxy)benzo[d]isoxazol-3-yl)-2-methoxybenzenesulfonamide] |
| 2 to 10 nM | COc1cccc(OC)c1S(=O)(=O)Nc1noc2cc(Cn3cccn3)cc(OC(F)F)c12 [Compound 12, N-(6-((1H-Pyrazol-1-yl)methyl)-4-(difluoromethoxy)benzo[d]isoxazol-3-yl)-2,6-dimethoxybenzenesulfonamide] |
| 0.5 to 2 nM | COc1ccc(C(C)(C)O)cc1S(=O)(=O)Nc1noc2cc(Cn3cccn3)cc(OC)c12 [Compound 13, N-(6-((1H-Pyrazol-1-yl)methyl)-4-methoxybenzo[d]isoxazol-3-yl)-5-(2-hydroxypropan-2-yl)-2-methoxybenzenesulfonamide] |
| 0.5 to 2 nM | COc1ccc2c(c1S(=O)(=O)Nc1noc3cc(Cn4cccn4)cc(OC)c13)OCCO2 [Compound 14, N-(6-((1H-Pyrazol-1-yl)methyl)-4-methoxybenzo[d]isoxazol-3-yl)-6-methoxy-2,3-dihydrobenzo[b][1,4]dioxine-5-sulfonamide] |
| < 0.5 nM | COc1ccc2c(c1S(=O)(=O)Nc1noc3cc(Cn4cccn4)cc(OC)c13)OCCC21CCC1 [Compound 15, N-(6-((1H-Pyrazol-1-yl)methyl)-4-methoxybenzo[d]isoxazol-3-yl)-7-methoxyspiro[chromane-4,1′-cyclobutane]-8-sulfonamide] |
| < 0.5 nM | COc1ccc2c(c1S(=O)(=O)Nc1noc3cc(Cn4cccn4)cc(OC)c13)OCCC2(C)C [Compound 16, N-(6-((1H-Pyrazol-1-yl)methyl)-4-methoxybenzo[d]isoxazol-3-yl)-7-methoxy-4,4-dimethylchromane-8-sulfonamide] |
| 0.5 to 2 nM | COc1ccc2c(c1S(=O)(=O)Nc1noc3cc(Cn4cccn4)cc(OC)c13)OCO2 [Compound 17, N-(6-((1H-Pyrazol-1-yl)methyl)-4-methoxybenzo[d]isoxazol-3-yl)-5-methoxybenzo[d][1,3]dioxole-4-sulfonamide] |
| 2 to 10 nM | COc1ccc2c(c1S(=O)(=O)Nc1noc3cc(Cn4cccn4)cc(OC)c13)OC(C)(C)O2 [Compound 18, N-(6-((1H-Pyrazol-1-yl)methyl)-4-methoxybenzo[d]isoxazol-3-yl)-5-methoxy-2,2-dimethylbenzo[d][1,3]dioxole-4-sulfonamide] |
| 2 to 10 nM | COc1ccc2c(c1S(=O)(=O)Nc1noc3cc(Cn4cccn4)cc(OC)c13)OC(C)(C)C2 [Compound 19, N-(6-((1H-Pyrazol-1-yl)methyl)-4-methoxybenzo[d]isoxazol-3-yl)-6-methoxy-2,2-dimethyl-2,3-dihydrobenzofuran-7-sulfonamide] |
| 0.5 to 2 nM | COc1ccc2c(c1S(=O)(=O)Nc1noc3cc(Cn4cccn4)cc(OC)c13)OCC2(C)C [Compound 20, N-(6-((1H-Pyrazol-1-yl)methyl)-4-methoxybenzo[d]isoxazol-3-yl)-6-methoxy-3,3-dimethyl-2,3-dihydrobenzofuran-7-sulfonamide] |
| 10 to 50 nM | COc1cccc(OC)c1S(=O)(=O)Nc1nsc2cc(Cn3cccn3)cc(OC)c12 [Compound 24, N-(6-((1H-Pyrazol-1-yl)methyl)-4-methoxybenzo[d]isothiazol-3-yl)-2,6-dimethoxybenzenesulfonamide] |
| ≥ 50 nM | COc1cccc(OC)c1S(=O)(=O)Nc1nsc2cc(Cn3cccn3)ccc12 [Compound 25, N-(6-((1H-Pyrazol-1-yl)methyl)benzo[d]isothiazol-3-yl)-2,6-dimethoxybenzenesulfonamide] |

| Compound | IC50 |
| --- | --- |
| COc1cc(Cn2cccn2)cc2onc(NS(=O)(=O)c3ccccc3OC3CCC3)c12 [Compound 1, N-(6-((1H-Pyrazol-1-yl)methyl)-4-methoxybenzo[d]isoxazol-3-yl)-2-cyclobutoxybenzenesulfonamide] | 0.5 to 2 nM |
| COc1cc(Cn2cccn2)cc2onc(NS(=O)(=O)c3ccccc3OC3CC(F)(F)C3)c12 [Compound 2, N-(6-((1H-Pyrazol-1-yl)methyl)-4-methoxybenzo[d]isoxazol-3-yl)-2-(3,3-difluorocyclobutoxy)benzenesulfonamide] | 2 to 10 nM |
| COc1cc(Cn2cccn2)cc2onc(NS(=O)(=O)c3cc(C(C)(C)C)ccc3OC3CCC3)c12 [Compound 3, N-(6-((1H-Pyrazol-1-yl)methyl)-4-methoxybenzo[d]isoxazol-3-yl)-5-(tert-butyl)-2-cyclobutoxybenzenesulfonamide] | 2 to 10 nM |
| CC(C)Oc1cc(Cn2cccn2)cc2onc(NS(=O)(=O)c3cc(C(C)(C)C)ccc3OC3CCC3)c12 [Compound 6, N-(6-((1H-Pyrazol-1-yl)methyl)-4-isopropoxybenzo[d]isoxazol-3-yl)-5-(tert-butyl)-2-cyclobutoxybenzenesulfonamide] | 2 to 10 nM |
| COc1c(F)c(Cn2cccn2)cc2onc(NS(=O)(=O)c3cc(C(C)(C)C)ccc3OC3CCC3)c12 [Compound 7, N-(6-((1H-Pyrazol-1-yl)methyl)-5-fluoro-4-methoxybenzo[d]isoxazol-3-yl)-5-(tert-butyl)-2-cyclobutoxybenzenesulfonamide] | 0.5 to 2 nM |
| CC(C)(C)c1ccc(OC2CCC2)c(S(=O)(=O)Nc2noc3cc(Cn4cccn4)c(C4CC4)cc23)c1 [Compound 8, N-(6-((1H-Pyrazol-1-yl)methyl)-5-cyclopropylbenzo[d]isoxazol-3-yl)-5-(tert-butyl)-2-cyclobutoxybenzenesulfonamide] | 10 to 50 nM |
| COc1cccc(OC2CCC2)c1S(=O)(=O)Nc1noc2cc(Cn3cccn3)cc(OC)c12 [Compound 21, N-(6-((1H-Pyrazol-1-yl)methyl)-4-methoxybenzo[d]isoxazol-3-yl)-2-cyclobutoxy-6-methoxybenzenesulfonamide] | 2 to 10 nM |
| CCc1ccc(OC2CCC2)c(S(=O)(=O)Nc2noc3cc(Cn4cccn4)cc(OC)c23)c1 [Compound 22, N-(6-((1H-Pyrazol-1-yl)methyl)-4-methoxybenzo[d]isoxazol-3-yl)-2-cyclobutoxy-5-ethylbenzenesulfonamide] | 2 to 10 nM |
| COc1cc(Cn2cccn2)cc2onc(NS(=O)(=O)c3cc(C(C)C)ccc3OC3CCC3)c12 [Compound 23, N-(6-((1H-Pyrazol-1-yl)methyl)-4-methoxybenzo[d]isoxazol-3-yl)-2-cyclobutoxy-5-isopropylbenzenesulfonamide] | 2 to 10 nM |
